Consider five molecules from the NIST ThermoML archive (doi:10.1016/j.fluid.2014.01.013).

Numbers after ± are expanded uncertainties.

A word on the mass density: it is mass per unit of volume.

For this data set the following is noted: 298.15 K; 101.33 kPa; Liquid; Vibrating tube method.
`O=Cc1ccccc1` [benzaldehyde]: the mass density is listed as 1042.94 ± 0.26 kg/m3. With `CCCCCCCCCC` [decane], the mass density is 726.43 ± 0.25 kg/m3. In the case of `CCCCCCCCCCCC` [dodecane], the mass density was 741.54 ± 0.58 kg/m3. As to `CCCCCCCCCCCCCCCC` [hexadecane], the mass density is recorded as 770.21 ± 0.24 kg/m3. For `CCCCCCCCCCCCCC` [tetradecane] the value was 759.27 ± 0.24 kg/m3.
